Measurements taken from paper PMC6934184, “Selective DNA-PKcs inhibition extends the therapeutic index of localized radiotherapy and chemotherapy” (The Journal of Clinical Investigation, 2019).

Molecular target: T1, ABL1 Y253F (Homo sapiens, UniProt P00519, Y253F)
T1 construct: purchased Thermo Fisher Scientific (Life Technologies) SelectScreen
Test: SelectScreen Z'LYTE
Format: biochemical
How it was run: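 Compound tested in SelectScreen activity assays, Z'LYTE for CSF1R, CDK1/cyclin B and MAP2K6 and Adapta for CAMK1. ATP for CAMK1 was listed as 10, and Km app was used for CSF1R. Results are expressed in percent.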

## CN(C(=O)CN1CCOCC1)c1ccc2sc3c(-c4cccc5c(=O)cc(N6CC7CCC(C6)O7)oc45)cccc3c2c1 [NU5455]
  inhibition at 1 µM: 5.9%
